Source: US11485751B2, “Apramycin derivatives” (WAYNE STATE UNIVERSITY, priority 2017, dated 2022)
In brackets after ≈: the same amount, converted by molar mass.

Columns and labels:
[1] = tested on: clinical isolates carrying AAC(3)-IV; assay: MIC broth microdilution, AAC(3)-IV; type: cell-based
Description: (§1) Minimal inhibitory concentrations (MIC) have been determined by broth microdilution assays (CLSI. Methods for Dilution Antimicrobial Susceptibility Tests for Bacteria That Grow Aerobically; Approved Standard—Tenth Edition. CLSI document M07-A10. Wayne, Pa.: Clinical and Laboratory Standards Institute; 2015.).
(§2) Minimal inhibitory concentrations (MICs, […]) against clinical isolates from Institute of Medical Microbiology, Univ. Zurich, and the IC50 values for bacterial, human mitochondrial and human cytosolic ribosomes are indicated.
(§3) Minimal inhibitory concentrations (μg/ml) against clinical isolates from Institute of Medical Microbiology, Univ. Zurich, and the IC50 values for bacterial, human mitochondrial and human cytosolic ribosomes are indicated.
(§4) The Minimal inhibitory concentrations (MICs, μg/ml) against clinical isolates from Institute of Medical Microbiology, Univ Zurich, and the IC50 values for bacterial, human mitochondrial and human cytosolic ribosomes are indicated.

[2] = tested on: AG173 E. coli AAC(3)-IV; assay: Antibacterial activity, clinical isolate AG173; type: cell-based
Description: as §1
(§5) Table 4 and 5 show the antibacterial activity of the compounds of the invention against bacterial reference strains (table 4) and against representative clinical isolates (table 5).

[3] = tested on: bacterial ribosomes; assay: in-vitro translation assay, bacterial ribosomes; type: biochemical
Description: (§6) IC50 values for bacterial, human chimeric, and rabbit reticulocyte ribosomes have been determined by in-vitro translation assays as described previously (Proc. Nat. Ac. Sci USA 2012, 109(27):10984-10989).
as §2

[4] = tested on: WT clinical isolates; assay: MIC broth microdilution, WT; type: cell-based; conditions: clinical isolates, IMM Univ. Zurich; wild type
Description: as §1, §2, §3, §4

[5] = tested on: AG033 P. aer. APH(3′)-II AAC(6′)-I; assay: Antibacterial activity, clinical isolate AG033; type: cell-based; set-up: unit not given here
Description: as §1, §5

[6] = tested on: Engineered E. coli pH424 armA; assay: Activity against G1405-methylated 16S-rRNA, E. coli pH424 armA; type: cell-based
Description: as §1

[7] = tested on: AG038 MRSA; assay: Antibacterial activity, clinical isolate AG038; type: cell-based; set-up: unit not given here
Description: as §1, §5

[8] = tested on: AG039 MRSA AAC(6′)-I ANT(4′)-I; assay: Antibacterial activity, clinical isolate AG039; type: cell-based
Description: as §1, §5

[9] = tested on: AG212, Escherichia coli ATCC25922; assay: MIC reference strain AG212; type: cell-based
Description: as §1, §5
(§7) Legend to Tables: GEN, gentamicin; AMK, amikacin; PLZ, plazomicin; APR, apramycin; AG212, Escherichia coli ATCC25922; AG215, Klebsiella pneumonia; AG220, Pseudomonas aeruginosa ATCC27853; AG225, Acinetobacter baumannii pittii; AG290, Enterobacter cloacae; […], Mycobacterium smegmatis. MICs for AG192 have been determined in the presence of 0.5 μg/mL of ampicillin in the medium to mimic the synergistic effect of aminoglycoside and β-lactam antibiotics combination therapy in the treatment of Enterococcus infections in humans.

[10] = tested on: Engineered E. coli pH430 WT; assay: Activity, engineered E. coli pH430 WT; type: cell-based; conditions: wild type
Description: as §1

[11] = tested on: SZ380, Mycobacterium smegmatis; assay: MIC reference strain SZ380; type: cell-based
Description: as §1, §5, §7

[12] = tested on: AG290, Enterobacter cloacae; assay: MIC reference strain AG290; type: cell-based
Description: as §1, §5, §7

[13] = tested on: human mitochondrial ribosomes; assay: in-vitro translation assay, human mitochondrial (human chimeric) ribosomes; type: biochemical
Description: as §6, §2

[14] = tested on: Engineered E. coli pH425 rmtB; assay: Activity against G1405-methylated 16S-rRNA, E. coli pH425 rmtB; type: cell-based
Description: as §1

[15] = tested on: AG220, Pseudomonas aeruginosa ATCC27853; assay: MIC reference strain AG220; type: cell-based
Description: as §1, §5, §7

[16] = tested on: ATCC19977 M. abcessus; assay: MIC reference strain ATCC19977; type: cell-based
Description: as §1, §5

[17] = tested on: AG031 P. aer. APH(3′)-II; assay: Antibacterial activity, clinical isolate AG031; type: cell-based; set-up: unit not given here
Description: as §1, §5

[18] = tested on: Engineered E. coli AG103 armA; assay: Activity against G1405-methylated 16S-rRNA, E. coli AG103 armA; type: cell-based
Description: as §1

[19] = tested on: AG225, Acinetobacter baumannii pittii; assay: MIC reference strain AG225; type: cell-based
Description: as §1, §5, §7

[20] = tested on: Engineered E. coli pH427 rmtF; assay: Activity against G1405-methylated 16S-rRNA, E. coli pH427 rmtF; type: cell-based
Description: as §1

[21] = tested on: AG055 E. coli WT; assay: Antibacterial activity, clinical isolate AG055; type: cell-based; set-up: unit not given here
Description: as §1, §5

[22] = tested on: human cytosolic ribosomes; assay: in-vitro translation assay, human cytosolic ribosomes; type: biochemical
Description: as §6, §2

[23] = tested on: Engineered E. coli pH426 rmtC; assay: Activity against G1405-methylated 16S-rRNA, E. coli pH426 rmtC; type: cell-based
Description: as §1

[24] = tested on: isolates carrying apmA; assay: MIC broth microdilution, apmA; type: cell-based; conditions: apmA resistance gene
Description: Minimal inhibitory concentrations (MIC) have been determined by broth microdilution assays (CLSI. Methods for Dilution Antimicrobial Susceptibility Tests for Bacteria That Grow Aerobically; Approved Standard—Tenth Edition. CLSI document M07-A10. Wayne, Pa.: Clinical and Laboratory Standards Institute; 2015.). […]
as §3, §4

[25] = tested on: AG215, Klebsiella pneumonia; assay: MIC reference strain AG215; type: cell-based
Description: as §1, §5, §7

[26] = tested on: AG003 E. coli AAC(3)-II; assay: Antibacterial activity, clinical isolate AG003; type: cell-based
Description: as §1, §5

[27] = tested on: AG001 E. coli WT; assay: Antibacterial activity, clinical isolate AG001; type: cell-based; set-up: unit not given here
Description: as §1, §5

[28] = tested on: AG032 P. aer. APH(3′)-II; assay: Antibacterial activity, clinical isolate AG032; type: cell-based; set-up: unit not given here
Description: as §1, §5

[29] = tested on: AG042 MRSA AAC(6′)-I ANT(4′)-I APH(2′); assay: Antibacterial activity, clinical isolate AG042; type: cell-based; set-up: unit not given here
Description: as §1, §5

[30] = tested on: A baum. AG227 APH(3′)-I armA; assay: Activity against G1405-methylated 16S-rRNA, clinical isolate AG227; type: cell-based
Description: as §1

[31] = tested on: K. pneum. AG269 AAC(3)-II AAC(6′)-I rmtB; assay: Activity against G1405-methylated 16S-rRNA, clinical isolate AG269; type: cell-based
Description: as §1

[32] = tested on: E. coli AG153 AAC(3)-II APH(3′)-II rmtB; assay: Activity against G1405-methylated 16S-rRNA, clinical isolate AG153; type: cell-based
Description: as §1

[33] = tested on: Enterob. AG302 AAC(3)-II AAC(6′)-I rmtC; assay: Activity against G1405-methylated 16S-rRNA, clinical isolate AG302; type: cell-based
Description: as §1

CNC1C(OC2OC(CO)C(N)C(O)C2O)OC2CC(N)C(OC3C(N)CC(N)C(O)C3F)OC2C1O (stereo not drawn) [DC168, 5-Deoxy-5-epi-fluoro apramycin]
MIC AAC(3)-IV ([1]; clinical isolates, IMM Univ. Zurich, AAC(3)-IV): >32 µg/mL | Antibacterial activity AG173 E. coli AAC(3)-IV [2]: 128 | IC50 [3]: 0.05 µM | MIC WT [4]: 2 µg/mL (≈ 3.69 µM) | Antibacterial activity AG033 P. aer. APH(3′)-II AAC(6′)-I [5]: 32 | Activity E. coli pH424 armA [6]: 2 | Antibacterial activity AG038 MRSA [7]: 2-4 | Antibacterial activity AG039 MRSA AAC(6′)-I ANT(4′)-I [8]: 2-4 | MIC AG212 E. coli ([9]; reference strain ATCC25922): 4 µg/mL | Activity E. coli pH430 WT [10]: 2 | MIC SZ380 M. smegmatis ([11]; reference strain): 0.125 µg/mL | MIC AG290 E. cloacae ([12]; reference strain): 4 µg/mL | IC50 [13]: 30 µM | Activity E. coli pH425 rmtB [14]: 2 | MIC AG220 P. aeruginosa ([15]; reference strain ATCC27853): 4 µg/mL | MIC ATCC19977 M. abcessus ([16]; reference strain): 1 µg/mL (≈ 1.85 µM) | Antibacterial activity AG031 P. aer. APH(3′)-II [17]: 8-16 | Activity E. coli AG103 armA [18]: 1 | MIC AG225 A. baumannii ([19]; reference strain): 4 µg/mL | Activity E. coli pH427 rmtF [20]: 2 | Antibacterial activity AG055 E. coli WT [21]: 4 | IC50 [22]: 28 µM | Activity E. coli pH426 rmtC [23]: 2 | MIC apmA [24]: 4 µg/mL (≈ 7.39 µM) | MIC AG215 K. pneumonia ([25]; reference strain): 1 µg/mL | Antibacterial activity AG003 E. coli AAC(3)-II [26]: 4 | Antibacterial activity AG001 E. coli WT [27]: 8 | Antibacterial activity AG032 P. aer. APH(3′)-II [28]: 8-16 | Antibacterial activity AG042 MRSA AAC(6′)-I ANT(4′)-I APH(2′) [29]: 4

CNC1C(O)C2O[C@H](O[C@@H]3C(N)C[C@@H](N)[C@@H](O)[C@H]3OCCCO)C(N)C[C@@H]2O[C@@H]1O[C@H]1OC(CO)[C@@H](N)[C@H](O)C1O (stereo partly drawn) [DC207]
MIC ([1]; read-out: MIC AAC(3)-IV): > 128 µg/mL | Antibacterial activity AG173 E. coli AAC(3)-IV [2]: >128 | IC50 [3]: 0.6 µM | Activity A baum. AG227 APH(3′)-I armA [30]: 16-32 | Activity E. coli pH424 armA [6]: 4 | Antibacterial activity AG038 MRSA [7]: 32 | MIC ([9]; Escherichia coli, ATCC25922, read-out: MIC AG212 E. coli): 16 µg/mL | Activity E. coli pH430 WT [10]: 8 | MIC ([11]; Mycolicibacterium smegmatis, read-out: MIC SZ380 M. smegmatis): 1 µg/mL | MIC ([12]; Enterobacter cloacae, read-out: MIC AG290 E. cloacae): 16 µg/mL | IC50 [13]: > 1000 µM | Activity K. pneum. AG269 AAC(3)-II AAC(6′)-I rmtB [31]: 8 | MIC ([15]; Pseudomonas aeruginosa, ATCC27853, read-out: MIC AG220 P. aeruginosa): 64 µg/mL | MIC ([16]; read-out: MIC ATCC19977 M. abcessus): 8 µg/mL (≈ 13.4 µM) | Activity E. coli AG153 AAC(3)-II APH(3′)-II rmtB [32]: 8 | Antibacterial activity AG031 P. aer. APH(3′)-II [17]: 128 | Activity Enterob. AG302 AAC(3)-II AAC(6′)-I rmtC [33]: 8-16 | MIC ([19]; Acinetobacter baumannii, read-out: MIC AG225 A. baumannii): 32 µg/mL | IC50 [22]: > 1000 µM | MIC [24]: > 128 µg/mL | MIC ([25]; Klebsiella pneumoniae, read-out: MIC AG215 K. pneumonia): 8 µg/mL | Antibacterial activity AG001 E. coli WT [27]: 16
